Where a SMILES comes first, the peptide text is derived from it. The star is where a group is joined. Boc = CC(C)(C)OC(=O)*
Legend:
SARS-CoV-2 [1] = assay: Antiviral activity against SARS-CoV-2 infected in Vero E6 cells assessed as reduction in viral replication; type: functional, organism-based; details: Severe acute respiratory syndrome coronavirus 2, Vero C1008
[2] = Inhibition of SARS-Cov-2 Main protease by FRET assay; set-up: species or system Severe acute respiratory syndrome coronavirus 2
SARS-CoV-2 [3] = assay: Antiviral activity against SARS-CoV-2 infected in Vero E6 cells assessed as inhibition of viral replication; type: functional, organism-based; details: Severe acute respiratory syndrome coronavirus 2, Vero C1008
[4] = Inhibition of SARS-CoV-2 Main protease; set-up: species or system Severe acute respiratory syndrome coronavirus 2
[5] = biological target: T1, Replicase polyprotein 1ab (Severe acute respiratory syndrome coronavirus 2, UniProt P0DTD1); assay: Inhibition of SARS-CoV-2 3CL protease
[6] = Inhibition of SARS-CoV-2 Main protease using DABCYL-KTSAVLQ-SGFRKM-E(EDANS) as substrate pre-treated for 15 mins and measured for 60 mins by FRET assay; set-up: species or system Severe acute respiratory syndrome coronavirus 2
[7] = biological target: T1, Replicase polyprotein 1ab; assay: Inhibition of N-terminal 6His-tagged SARS-CoV-2 3CL protease using FAM-SAVLQ as substrate pre-incubated for 15 mins followed by substrate addition and incubated for 30 mins by FRET analysis
[8] = Inhibition of MERS-CoV 3CLpro by FRET assay; set-up: species or system Middle East respiratory syndrome-related coronavirus
[9] = biological target: T1, Replicase polyprotein 1ab; assay: Inhibition of SARS-CoV-2 3CL protease using DabcylKTSAVLQSGFRKME-Edans amide as substrate measured for 1 hrs by FRET assay
[10] = biological target: T1, Replicase polyprotein 1ab; assay: Inhibition of SARS-CoV-2 3CL protease by luciferase reporter assay
[11] = Inhibition of recombinant SARS-CoV-2 Wuhan-Hu-1 main protease extracted from Escherichia coli cells using Dabcyl-KTSAVLQSGFRKME-Edans as substrate incubated for 60 mins by FRET assay; set-up: species or system Severe acute respiratory syndrome coronavirus 2

O=C1c2ccccc2CCC1CNCCc1ccc(O)cc1 (stereo unspecified)
EC50 (SARS-CoV-2 [1]): 24000 nM

CCOC(=O)/C=C/[C@H](C[C@@H]1CCNC1=O)NC(=O)[C@@H](CC(=O)[C@@H](NC(=O)c1cc(C)on1)C(C)C)Cc1ccc(F)cc1
IC50 [2]: 47000 nM | EC50 (SARS-CoV-2 [3]): 1870 nM | IC50 [4]: 68000 nM

O=C(Oc1cncc(Cl)c1)c1cccs1
IC50 [4]: 81 nM

O=C[C@H](C[C@@H]1CCNC1=O)NC(=O)[C@H](CC1CC1)NC(=O)OCc1ccccc1
IC50 [4]: 130 nM

COc1cccc2[nH]c(C(=O)N[C@@H](CC(C)C)C(=O)N[C@H](C=O)C[C@@H]3CCNC3=O)cc12
IC50 [4]: 130 nM

CC(C)C[C@H](NC(=O)O[C@@H](C)c1ccccc1)C(=O)N[C@H](C=O)C[C@@H]1CCNC1=O
IC50 [4]: 130 nM

O=C[C@H](C[C@@H]1CCNC1=O)NC(=O)[C@H](CC1CC1)NC(=O)OCc1cccc(F)c1
IC50 [4]: 14 nM

CC(C)C[C@H](NC(=O)OCc1cccc(F)c1)C(=O)N[C@H](C=O)C[C@@H]1CCNC1=O
IC50 [4]: 130 nM

C=CS(=O)(=O)N(c1ccc(C(C)(C)C)cc1)C(C(=O)NCCc1cccc(OC)c1)c1cccnc1 (stereo unspecified)
IC50 [5]: 240 nM

CC(C)C[C@H](NC(=O)OCC1CCC(F)(F)CC1)C(=O)N[C@@H](C[C@@H]1CCNC1=O)C(O)S(=O)(=O)O (stereo partly specified)
IC50 [5]: 100 nM

C=CC(=O)N(c1ccc(C(C)(C)C)cc1)C(C(=O)NC(C)(C)C)c1cccnc1 (stereo unspecified)
IC50 [4]: 2950 nM

C=CS(=O)(=O)N(c1ccc(C(C)(C)C)cc1)C(C(=O)NCCc1cccc(Cl)c1)c1cccnc1 (stereo unspecified)
IC50 [5]: 0.17 nM

CC(C)C[C@H](NC(=O)[C@@H](NC(=O)C1CCCCC1)C(C)C)C(=O)N[C@H](C=O)C[C@@H]1CCCNC1=O
IC50 [4]: 240 nM

COc1cc(O)c2c(c1)O[C@H](c1cc(O)c(O)c(O)c1)[C@@H](O)C2=O
EC50 (SARS-CoV-2 [3]): 8000 nM | IC50 [4]: 260 nM

COc1cc(O)c2c(=O)c(O)c(-c3cc(O)c(O)c(O)c3)oc2c1
EC50 (SARS-CoV-2 [3]): 8000 nM | IC50 [4]: 300 nM

COc1cccc2[nH]c(C(=O)N3C[C@H]4[C@@H]([C@H]3C(=O)N[C@@H](C[C@@H]3CCNC3=O)C(=O)c3nc5ccccc5s3)C4(C)C)cc12
IC50 [4]: 55 nM

S=C(S)NCc1cccnc1
IC50 [5]: 30 nM

O=Cc1ncc(Br)cc1OCc1ccc(Cl)c(Br)c1
IC50 [6]: 6000 nM

CCOC(=O)/C=C/[C@H](C[C@@H]1CCNC1=O)NC(=O)[C@@H](CC(=O)[C@@H](NC(=O)OCc1ccccc1)[C@H](C)OC(C)(C)C)CC(C)O (stereo partly specified)
IC50 [4]: 151 nM

CC(C)C[C@H](NC(=O)OC[C@@H]1C[C@H]1C1CCCCC1)C(=O)N[C@@H](C[C@H]1CCNC1=O)[C@H](O)S(=O)(=O)O
IC50 [7]: 170 nM | IC50 [5]: 280 nM

CC(C)C[C@H](NC(=O)OC[C@@H]1C[C@H]1c1cccc(F)c1)C(=O)N[C@H](C=O)CC1CCNC1=O (stereo partly specified)
IC50 [8]: 70 nM | IC50 [9]: 140 nM

COc1ccc([C@@H]2C[C@H]2COC(=O)N[C@@H](CC(C)C)C(=O)N[C@@H](C[C@H]2CCNC2=O)[C@@H](O)S(=O)(=O)O)cc1
IC50 [7]: 170 nM

CCCCC1CCC(OC(=O)N[C@@H](CC(C)C)C(=O)N[C@H](C=O)C[C@H]2CCNC2=O)CC1 (stereo partly specified)
IC50 [4]: 130 nM

CC(C)C[C@H](NC(=O)OC[C@@H]1C[C@H]1C1CCC(F)(F)CC1)C(=O)N[C@@H](C[C@H]1CCNC1=O)[C@H](O)S(=O)(=O)O
IC50 [7]: 170 nM

O=C(CCl)Nc1sc(-c2ccccc2)cc1C(=O)NC1CC1
IC50 [10]: 2360 nM

O=Cc1ncc(Br)cc1OCc1ccc2ccccc2c1
IC50 [6]: 26000 nM

C=CC(=O)N(c1ccc(C(C)(C)C)cc1)C(C(=O)NC)c1cccnc1 (stereo unspecified)
IC50 [4]: 2860 nM

Cc1ccc(COc2cc(Br)cnc2C=O)cc1[N+](=O)[O-]
IC50 [6]: 12000 nM

CC(C)C[C@H](NC(=O)OC(c1ccccc1)C1CCC(F)(F)CC1)C(=O)N[C@H](C=O)C[C@H]1CCNC1=O (stereo partly specified)
IC50 [4]: 130 nM

CCOC(=O)/C=C/[C@H](C[C@@H]1CCNC1=O)NC(=O)[C@H](CC#N)n1cccc(NC(=O)c2cc(C)on2)c1=O
IC50 [2]: 101000 nM

CC(C)C[C@H](NC(=O)OC(C)(C)C1CCC(F)(F)CC1)C(=O)N[C@@H](C[C@H]1CCNC1=O)C(O)S(=O)(=O)O (stereo partly specified)
IC50 [4]: 125 nM

C=CC(=O)N(c1ccc(C(C)(C)C)cc1)C(C(=O)NCCSC)c1cccnc1 (stereo unspecified)
IC50 [4]: 2860 nM

C=CC(=O)O[C@H](C(=O)NCc1cccc(OC)c1OC)c1ccc([N+](=O)[O-])cc1
IC50 [10]: 9390 nM

[2H]c1c([2H])c([2H])c(COC(C)N[C@@H](CC(C)C)C(=O)N[C@H](C=O)C[C@@H]2CCNC2=O)c([2H])c1[2H] (stereo partly specified)
IC50 [4]: 160 nM

C=CC(=O)O[C@H](CC)C(=O)NCCc1c[nH]c2ccccc12
IC50 [10]: 139000 nM

CC(C)C[C@H](NC(=O)OC[C@@H]1C[C@H]1c1cccc(F)c1)C(=O)N[C@@H](CC1CCNC1=O)C(O)S(=O)(=O)O (stereo partly specified)
IC50 [8]: 70 nM | IC50 [9]: 140 nM

O=Cc1ncc(Br)cc1OCc1ccc(Cl)c([N+](=O)[O-])c1
IC50 [6]: 1000 nM

O=C[C@H](C[C@@H]1CCNC1=O)NC(=O)[C@@H]1[C@H]2CCC[C@H]2CN1C(=O)CCc1ccc(Cl)cc1Cl
EC50 (SARS-CoV-2 [1]): 540 nM

C=CC(=O)N(c1ccc(C(C)(C)C)cc1)C(C(=O)NCc1ccccc1)c1cccnc1 (stereo unspecified)
IC50 [4]: 2860 nM

Cc1cc(C(=O)N[C@@H](C)C(=O)N[C@H](C(=O)N[C@@H](CC(C)C)[C@H](/C=C/C(=O)OCc2ccccc2)C[C@@H]2CCNC2=O)C(C)C)no1
EC50 (SARS-CoV-2 [1]): 16800 nM

COc1ccccc1[C@@H]1C[C@H]1COC(=O)N[C@@H](CC(C)C)C(=O)N[C@H](C=O)CC1CCNC1=O (stereo partly specified)
IC50 [8]: 70 nM | IC50 [9]: 140 nM

CCC1CCC(OC(=O)N[C@@H](CC(C)C)C(=O)N[C@H](C=O)C[C@@H]2CCNC2=O)CC1 (stereo partly specified)
IC50 [5]: 1100 nM

CC(C)C[C@H](NC(=O)OC[C@@H]1C[C@H]1c1ccccc1)C(=O)N[C@H](C=O)C[C@H]1CCNC1=O
IC50 [7]: 170 nM

O=Cc1ncc(Br)cc1OCc1cc(Br)ccc1Cl
IC50 [6]: 6000 nM

COc1ccccc1[C@@H]1C[C@H]1COC(=O)N[C@@H](CC(C)C)C(=O)N[C@@H](CC1CCNC1=O)C(O)S(=O)(=O)O (stereo partly specified)
IC50 [8]: 70 nM | IC50 [9]: 140 nM

C=CC(=O)N(c1ccc(C(C)(C)C)cc1)C(C(=O)NCCc1cccc(F)c1)c1cccnc1 (stereo unspecified)
IC50 [4]: 2860 nM

CCC1(OC(=O)N[C@@H](CC(C)C)C(=O)N[C@H](C=O)C[C@@H]2CCNC2=O)COCOC1
IC50 [5]: 450 nM

C=CC(=O)N(CCC)[C@H](C(=O)NCc1ccc2c(c1)OCO2)c1cccc(O)c1
IC50 [10]: 1000 nM

C=CC(=O)N(c1ccc(C(C)(C)C)cc1)C(C(=O)NCCOC)c1cccnc1 (stereo unspecified)
IC50 [4]: 2860 nM

CCC[C@@H]1C[C@H]1COC(=O)N[C@@H](CC(C)C)C(=O)N[C@@H](C[C@H]1CCNC1=O)[C@@H](O)S(=O)(=O)O
IC50 [7]: 170 nM

CC(C)C[C@H](NC(=O)OC[C@@H]1C[C@H]1c1cccc(Cl)c1)C(=O)N[C@H](C=O)C[C@H]1CCNC1=O
IC50 [7]: 170 nM

CC(=O)NCC(=O)N[C@@H](Cc1ccccc1)C(=O)N[C@H](C=O)Cc1c[nH]cn1 (Ac-Gly-Phe-His-aldehyde)
IC50 [11]: 2510 nM

CC(C)(C)OC(=O)NCC(=O)N[C@@H](Cc1ccccc1)C(=O)N[C@H](C=O)Cc1c[nH]cn1 (Boc-Gly-Phe-His-aldehyde)
IC50 [11]: 6490 nM

CCCCCCNC(=O)n1cc(F)c(=O)[nH]c1=O [CARMOFUR]
IC50 [4]: 18 nM

COc1cccc2[nH]c(C(=O)N[C@@H](CC(C)C)C(=O)N[C@@H](C[C@@H]3CCNC3=O)C(=O)COP(=O)(O)O)cc12 [LUFOTRELVIR]
IC50 [4]: 9 nM

COc1cccc2[nH]c(C(=O)N[C@@H](CC(C)C)C(=O)N[C@@H](C[C@@H]3CCNC3=O)C(=O)CO)cc12 [PF-00835231]
IC50 [4]: 600 nM

Cc1ccc(C(=O)C(C)CN2CCCCC2)cc1 (stereo unspecified) [TOLPERISONE]
EC50 (SARS-CoV-2 [1]): 19200 nM

Source: ChEMBL document CHEMBL6120938, “Covalent small-molecule inhibitors of SARS-CoV-2 Mpro: Insights into their design, classification, biological activity, and binding interactions” (Eur J Med Chem, 2024)
